Data as given in patent publication US6706739B2, “Imidazolidinone compounds” (National Health Research Institute, priority 2001, dated 2004).
Where two headings read alike, the source gives them in different places.

Legend:
Type in all cases: cell-based
enterovirus 71 = test: Plaque reduction assay, enterovirus 71
coxsackievirus A9 = test: Plaque reduction assay, coxsackievirus A9
coxsackievirus A24 = test: Plaque reduction assay, coxsackievirus A24
[1] = plaque reduction assay, vero cells, 35° C., 96 hours

O=C1N(CCCCCCOc2ccc(I)cc2)CCN1c1ccncc1 [Compound 61, 1-[6-(4-iodophenoxy)hexyl]-3-(4-pyridyl)-2-imidazolidinone]
showed antiviral activity: antiviral activity against enteroviruses, in particular enterovirus 71 (enterovirus 71; [1]) | antiviral activity against enteroviruses, in particular coxsackievirus A9 (coxsackievirus A9; [1]) | antiviral activity against enteroviruses, in particular coxsackievirus A24 (coxsackievirus A24; [1])

O=C1N(CCCCCCOc2ccc(Br)cc2)CCN1c1cccnc1 [Compound 33, 1-[6-(4-bromophenoxy)hexyl]-3-(3-pyridyl)-2-imidazolidinone]
showed antiviral activity: antiviral activity against enteroviruses, in particular enterovirus 71 (enterovirus 71; [1]) | antiviral activity against enteroviruses, in particular coxsackievirus A9 (coxsackievirus A9; [1]) | antiviral activity against enteroviruses, in particular coxsackievirus A24 (coxsackievirus A24; [1])

O=C1N(CCCCCOc2ccc(-c3ccc(Cl)cc3)cc2)CCN1c1ccncc1 [Compound 73, 1-[6-(4-(4′-chloro)biphenyl-4-yloxy)pentyl]-3-pyridin-4-yl-imidazolidin-2-one]
showed antiviral activity: antiviral activity against enteroviruses, in particular enterovirus 71 (enterovirus 71) | antiviral activity against enteroviruses, in particular coxsackievirus A9 (coxsackievirus A9) | antiviral activity against enteroviruses, in particular coxsackievirus A24 (coxsackievirus A24)

O=C1N(CCCCCCCOc2ccc(Br)cc2)CCN1c1ccncc1 [Compound 50, 1-[7-(4-bromophenoxy)heptyl]-3-(4-pyridyl)-2-imidazolidinone]
showed antiviral activity: antiviral activity against enteroviruses, in particular enterovirus 71 (enterovirus 71; [1]) | antiviral activity against enteroviruses, in particular coxsackievirus A9 (coxsackievirus A9; [1]) | antiviral activity against enteroviruses, in particular coxsackievirus A24 (coxsackievirus A24; [1])

O=C1N(CCCCCOc2ccc(Cl)cc2)CCN1c1ccncc1 [Compound 28, 1-[5-(4-chlorophenoxy)pentyl]-3-(4-pyridyl)-2-imidazolidinone]
showed antiviral activity: antiviral activity against enteroviruses, in particular enterovirus 71 (enterovirus 71; [1]) | antiviral activity against enteroviruses, in particular coxsackievirus A9 (coxsackievirus A9; [1]) | antiviral activity against enteroviruses, in particular coxsackievirus A24 (coxsackievirus A24; [1])

O=C1N(CCCCOCCOc2ccc(Br)cc2)CCN1c1ccncc1 [Compound 34, 1-4-[2-(4-bromophenoxy)ethoxy]butyl-3-(4-pyridyl)-2-imidazolidinone]
showed antiviral activity: antiviral activity against enteroviruses, in particular enterovirus 71 (enterovirus 71; [1]) | antiviral activity against enteroviruses, in particular coxsackievirus A9 (coxsackievirus A9; [1]) | antiviral activity against enteroviruses, in particular coxsackievirus A24 (coxsackievirus A24; [1])

O=C1N(CCCCCOCCOc2ccc(Br)cc2)CCN1c1ccncc1 [Compound 47, 1-(5-[2-(4-bromophenoxy)ethoxy]pentyl)-3-(4-pyridyl)-2-imidazolidinone]
showed antiviral activity: antiviral activity against enteroviruses, in particular enterovirus 71 (enterovirus 71; [1]) | antiviral activity against enteroviruses, in particular coxsackievirus A9 (coxsackievirus A9; [1]) | antiviral activity against enteroviruses, in particular coxsackievirus A24 (coxsackievirus A24; [1])

O=C1N(CCCCCCOc2ccc(C(F)(F)F)cc2)CCN1c1cccnc1 [Compound 42, 1-(3-pyridyl)-3-(6-[4-(trifluoromethyl)phenoxy]hexyl)-2-imidazolidinone]
showed antiviral activity: antiviral activity against enteroviruses, in particular enterovirus 71 (enterovirus 71; [1]) | antiviral activity against enteroviruses, in particular coxsackievirus A9 (coxsackievirus A9; [1]) | antiviral activity against enteroviruses, in particular coxsackievirus A24 (coxsackievirus A24; [1])

O=C1N(CCCCCCCOc2ccc(Cl)cc2)CCN1c1ccncc1 [Compound 2, 1-[7-(4-chlorophenoxy)heptyl]-3-(4-pyridyl)-2-imidazolidinone]
showed antiviral activity: antiviral activity against enteroviruses, in particular enterovirus 71 (enterovirus 71; [1]) | antiviral activity against enteroviruses, in particular coxsackievirus A9 (coxsackievirus A9; [1]) | antiviral activity against enteroviruses, in particular coxsackievirus A24 (coxsackievirus A24; [1])

O=C1N(CCCCCOc2ccc(Br)cc2)CCN1c1ccncc1 [Compound 52, 1-[5-(4-bromophenoxy)pentyl]-3-(4-pyridyl)-2-imidazolidinone]
showed antiviral activity: antiviral activity against enteroviruses, in particular enterovirus 71 (enterovirus 71; [1]) | antiviral activity against enteroviruses, in particular coxsackievirus A9 (coxsackievirus A9; [1]) | antiviral activity against enteroviruses, in particular coxsackievirus A24 (coxsackievirus A24; [1])

O=C1N(CCCCCCOc2ccc(Br)cc2)CCN1c1ccncc1 [Compound 17, 1-[6-(4-bromophenoxy)hexyl]-3-(4-pyridyl)-2-imidazolidinone]
showed antiviral activity: antiviral activity against enteroviruses, in particular enterovirus 71 (enterovirus 71; [1]) | antiviral activity against enteroviruses, in particular coxsackievirus A9 (coxsackievirus A9; [1]) | antiviral activity against enteroviruses, in particular coxsackievirus A24 (coxsackievirus A24; [1])

O=C1N(CCCCCCCOc2ccc(Cl)cc2)CCN1c1cccnc1 [Compound 39, 1-[7-(4-chlorophenoxy)heptyl]-3-(3-pyridyl)-2-imidazolidinone]
showed antiviral activity: antiviral activity against enteroviruses, in particular enterovirus 71 (enterovirus 71; [1]) | antiviral activity against enteroviruses, in particular coxsackievirus A9 (coxsackievirus A9; [1]) | antiviral activity against enteroviruses, in particular coxsackievirus A24 (coxsackievirus A24; [1])

O=C1N(CCCCCCOc2ccc(Cl)cc2)CCN1c1ccncc1 [Compound 24, 1-[6-(4-chlorophenoxy)hexyl]-3-(4-pyridyl)-2-imidazolidinone]
showed antiviral activity: antiviral activity against enteroviruses, in particular enterovirus 71 (enterovirus 71; [1]) | antiviral activity against enteroviruses, in particular coxsackievirus A9 (coxsackievirus A9; [1]) | antiviral activity against enteroviruses, in particular coxsackievirus A24 (coxsackievirus A24; [1])

O=C1N(CCCCCOc2ccc(-c3ccc([N+](=O)[O-])cc3)cc2)CCN1c1ccncc1 [Compound 76, 1-[5-(4′-nitro-biphenyl-4-yloxy)pentyl]-3-pyridin-4-yl-imidazolidin-2-one]
showed antiviral activity: antiviral activity against enteroviruses, in particular enterovirus 71 (enterovirus 71; [1]) | antiviral activity against enteroviruses, in particular coxsackievirus A9 (coxsackievirus A9; [1]) | antiviral activity against enteroviruses, in particular coxsackievirus A24 (coxsackievirus A24; [1])

O=C1N(CCCCCCOc2ccc(C(F)(F)F)cc2)CCN1c1ccncc1 [Compound 1, 1-(4-pyridyl)-3-(6-[4-(trifluoromethyl)phenoxy]hexyl)-2-imidazolidinone]
showed antiviral activity: antiviral activity against enteroviruses, in particular enterovirus 71 (enterovirus 71; [1]) | antiviral activity against enteroviruses, in particular coxsackievirus A9 (coxsackievirus A9; [1]) | antiviral activity against enteroviruses, in particular coxsackievirus A24 (coxsackievirus A24; [1])

CC1CN(CCCCCCOc2ccc(Cl)cc2)C(=O)N1c1ccncc1 (stereo not drawn) [Compound 21, 1-[6-(4-chlorophenoxy)hexyl]-4-methyl-3-(4-pyridyl)-2-imidazolidinone]
showed antiviral activity: antiviral activity against enteroviruses, in particular enterovirus 71 (enterovirus 71; [1]) | antiviral activity against enteroviruses, in particular coxsackievirus A9 (coxsackievirus A9; [1]) | antiviral activity against enteroviruses, in particular coxsackievirus A24 (coxsackievirus A24; [1])

COc1ccc(-c2ccc(OCCCCCN3CCN(c4ccncc4)C3=O)cc2)cc1 [Compound 74, 1-[5-(4′-methoxy-biphenyl-4-yloxy)pentyl]-3-pyridin-4-yl-imidazolidin-2-one]
showed antiviral activity: antiviral activity against enteroviruses, in particular enterovirus 71 (enterovirus 71; [1]) | antiviral activity against enteroviruses, in particular coxsackievirus A9 (coxsackievirus A9; [1]) | antiviral activity against enteroviruses, in particular coxsackievirus A24 (coxsackievirus A24; [1])
